Data set [1] deals with Echinochloa oryzoides (Ard.) Fritsch. Kind of data set: Preemergence weed control under flooded paddy conditions, ECHORC (Watergrass (Calif.)). For herbicidal effect rating, ECHORC: meaning of each grade not given here. The class given is in vivo. The conditions noted are these: flooded paddy; for ECHORC herbicidal effect rating / herbicidal effect rating, ECHORC: rated three to four weeks after treatment; for ECHORC: herbicidal effect rating 0-9, three to four weeks after treatment.

In a further data set the test system is Cyperus iria. The experiment in a line: Preemergence weed control under flooded paddy conditions, CYPIR (Rice Flatsedge). For herbicidal effect rating, CYPIR: meaning of each grade not given here. The class given is in vivo. The note with it: flooded paddy; for CYPIR herbicidal effect rating / herbicidal effect rating, CYPIR: rated three to four weeks after treatment; for CYPIR: herbicidal effect rating 0-9, three to four weeks after treatment.

The subject of data set [2] is Cyperus serotinus, Rottb. Kind of data set: Preemergence weed control under flooded paddy conditions, CYPSE (Flatsedge). For herbicidal effect rating, CYPSE: meaning of each grade not given here. The note with it: for CYPSE herbicidal effect rating / herbicidal effect rating, CYPSE: rated three to four weeks after treatment; for CYPSE: herbicidal effect rating 0-9, three to four weeks after treatment. The class given is in vivo.
Data set [3] relates to Monochoria vaginalis, Presl. Kind of data set: Preemergence weed control under flooded paddy conditions, MOOVA (Monochoria). For herbicidal effect rating, MOOVA: meaning of each grade not given here. The class given is in vivo. The conditions noted are these: flooded paddy; for MOOVA herbicidal effect rating / herbicidal effect rating, MOOVA: rated three to four weeks after treatment; for MOOVA: herbicidal effect rating 0-9, three to four weeks after treatment.

A further data set concerns Sagittaria pygmaea, L. Kind of data set: Preemergence weed control under flooded paddy conditions, SAGPY (Arrowhead (Pygmaea)). For herbicidal effect rating, SAGPY: meaning of each grade not given here. The class given is in vivo. The note with it: flooded paddy; for SAGPY herbicidal effect rating / herbicidal effect rating, SAGPY: rated three to four weeks after treatment; for SAGPY: herbicidal effect rating 0-9, three to four weeks after treatment.

For data set [4], the system named is Oryza sativa, (L.) Tebonnet. The experiment in a line: Rice tolerance to post-transplant applications under flooded paddy conditions (Example 187), ORYSAT (Rice, Tebonnet). The conditions noted are these: for ORYSAT herbicidal effect rating / herbicidal effect rating ORYSAT: rated three to four weeks after treatment; for ORYSAT: herbicidal effect rating 0-9, three to four weeks after treatment.

[5] abbreviates: Rate 0.0320 kg/ha, preemergence.
Setting [6] is: Rate 0.0620 kg/ha, preemergence.
The mark [7] stands for this setting: Rate 0.1250 kg/ha, preemergence.
The mark [8] stands for this setting: Rate 0.2500 kg/ha, preemergence.
The mark [9] stands for this setting: Rate 0.0320 kg/ha, preemergence weeds.
Setting [10] is: Rate 0.0620 kg/ha, preemergence weeds.
The mark [11] stands for this setting: Rate 0.1250 kg/ha, preemergence weeds.
Where [12] appears, read: Rate 0.2500 kg/ha, preemergence weeds.
[13] abbreviates: 0.0320 kg/ha, preemergence weeds.
The mark [14] stands for this setting: 0.0620 kg/ha, preemergence weeds.
The mark [15] stands for this setting: 0.1250 kg/ha, preemergence weeds.
Setting [16] is: 0.2500 kg/ha, preemergence weeds.

Data on four compounds can be found in patent EP0908457B1, “3-(1,2-benzisothiazol- and isoxazol-5-Y1)-2,4(1H,3H)-pyrimidinedione or thione and 3-(1,2-benzisothiazol- and isoxazol-5-y1)-4(3H)-pyrimidinone or thione herbicidal agents” (BASF AKTIENGESELLSCHAFT, priority 1997, dated 1999).

Molecules are shown by their SMILES.

For `Cc1ccc(OCC(=O)NS(=O)(=O)c2sc3ccc(Cl)cc3c2C)c(-c2nsc3ccc(-n4c(=O)cc(C(F)(F)F)n(C)c4=O)cc23)c1` [Example 290, Acetamide, N-[(5-chloro-3-methylbenzo[b]thien-2-yl)sulfonyl]-2-{{2-{5-[3,6-dihydro-3-methyl-2,6-dioxo-4-(trifluoromethyl)-1(2H)-pyrimidinyl]-1,2-benzisothiazol-3-yl}-p-tolyl}oxy}-], the “ECHORC herbicidal effect rating” value in data set [1] (setting [5]) was 0.0; in data set [1] (setting [6]) it was 0.0; in data set [1] (setting [7]) it was 3.0; in data set [1] (setting [8]) it was 7.0. The “CYPIR herbicidal effect rating” value in the data set with Cyperus iria (setting [5]), in the data set with Cyperus iria (setting [6]), in the data set on Cyperus iria (setting [7]) and in the data set on Cyperus iria (setting [8]) was 6.0 throughout. In addition, the “CYPSE herbicidal effect rating” value in data set [2] (setting [5]), in data set [2] (setting [6]), in data set [2] (setting [7]) and in data set [2] (setting [8]) was 0.0 throughout. The “MOOVA herbicidal effect rating” value in data set [3] (setting [5]) came to 0.0; in data set [3] (setting [6]) it was 7.0; in data set [3] (setting [7]) it was 7.0; in data set [3] (setting [8]) it was 7.0. The “SAGPY herbicidal effect rating” value with Sagittaria pygmaea, L. (setting [5]) is listed as 0.0; in the data set on Sagittaria pygmaea, L. (setting [6]), 0.0; in the data set with Sagittaria pygmaea, L. (setting [7]), 0.0; in the data set on Sagittaria pygmaea, L. (setting [8]), 0.0. Further, the “ORYSAT herbicidal effect rating” value in data set [4] (Rate 0.0320 kg/ha), in data set [4] (Rate 0.0620 kg/ha), in data set [4] (Rate 0.1250 kg/ha) and in data set [4] (Rate 0.2500 kg/ha) was 0.0 throughout.

As for `COc1cccc(-c2nsc3ccc(-n4c(=O)cc(C(F)(F)F)n(C)c4=O)cc23)c1` [Example 301, 2,4(1H,3H)-Pyrimidinedione, 3-[3-(m-methoxyphenyl)-1,2-benzisothiazol-5-yl]-1-methyl-6-(trifluoromethyl)-], the “herbicidal effect rating, ECHORC” value in data set [1] (setting [9]), in data set [1] (setting [10]), in data set [1] (setting [11]) and in data set [1] (setting [12]) was 9.0 throughout. Further, the “herbicidal effect rating, CYPIR” value with Cyperus iria (setting [9]), in the data set on Cyperus iria (setting [10]), in the data set on Cyperus iria (setting [11]) and with Cyperus iria (setting [12]) was 9.0 each time. The “herbicidal effect rating, CYPSE” value in data set [2] (setting [9]), in data set [2] (setting [10]), in data set [2] (setting [11]) and in data set [2] (setting [12]) was 9.0 in each case. For the same compound, the “herbicidal effect rating, MOOVA” value in data set [3] (setting [9]), in data set [3] (setting [10]), in data set [3] (setting [11]) and in data set [3] (setting [12]) was 9.0 throughout. The “herbicidal effect rating, SAGPY” value in the data set on Sagittaria pygmaea, L. (setting [9]) came to 2.0; in the data set with Sagittaria pygmaea, L. (setting [10]), 4.5; in the data set on Sagittaria pygmaea, L. (setting [11]) it was 7.0; in the data set with Sagittaria pygmaea, L. (setting [12]), 8.5. Further, the “herbicidal effect rating ORYSAT” value was 1.0 in data set [4] (Rate 0.0320 kg/ha), 1.0 in data set [4] (Rate 0.0620 kg/ha), 2.5 in data set [4] (Rate 0.1250 kg/ha) and 3.5 in data set [4] (Rate 0.2500 kg/ha).

For the compound `CCCCS(=O)(=O)NC(=O)COc1ccccc1-c1nsc2ccc(-n3c(=O)cc(C(F)(F)F)n(C)c3=O)cc12` [Example 574, Acetamide, N-(butylsulfonyl)-2-{o-{5-[3,6-dihydro-3-methyl-2,6-dioxo-4-(trifluoromethyl)-1(2H)-pyrimidinyl]-1,2-benzisothiazol-3-yl}-phenoxy}-], the “herbicidal effect rating, ECHORC” value in data set [1] (setting [5]) is listed as 4.0; in data set [1] (setting [6]), 6.5; in data set [1] (setting [7]), 8.5; in data set [1] (setting [8]), 9.0. The “herbicidal effect rating, CYPIR” value in the data set on Cyperus iria (setting [5]) came to 2.0; with Cyperus iria (setting [6]), 5.5; with Cyperus iria (setting [7]), 6.0; with Cyperus iria (setting [8]), 7.0. Moreover, the “herbicidal effect rating, CYPSE” value in data set [2] (setting [5]) was 0.0; in data set [2] (setting [6]) it was 2.0; in data set [2] (setting [7]), 4.5; in data set [2] (setting [8]), 6.5. The “herbicidal effect rating, MOOVA” value in data set [3] (setting [5]), in data set [3] (setting [6]), in data set [3] (setting [7]) and in data set [3] (setting [8]) was 9.0 in each case. Further, the “herbicidal effect rating, SAGPY” value was determined as 0.0 in the data set on Sagittaria pygmaea, L. (setting [5]); 1.0 with Sagittaria pygmaea, L. (setting [6]); 2.0 with Sagittaria pygmaea, L. (setting [7]); 6.0 in the data set with Sagittaria pygmaea, L. (setting [8]). Moreover, the “herbicidal effect rating ORYSAT” value in data set [4] (Rate 0.0320 kg/ha) came out at 3.0; in data set [4] (Rate 0.0620 kg/ha) it was 4.5; in data set [4] (Rate 0.1250 kg/ha), 6.5; in data set [4] (Rate 0.2500 kg/ha) it was 8.0.

For the compound `COc1cc(C(Br)Br)ccc1-c1nsc2ccc(-n3c(=O)cc(C(F)(F)F)n(C)c3=O)cc12` [Example 447, 2,4(1H,3H)-Pyrimidinedione, 3-[3-(alpha,alpha-dibromo-2-methoxy-p-tolyl)-1,2-benzisothiazol-5-yl]-1-methyl-6-(trifluoromethyl)-], the ECHORC in data set [1] (setting [13]) was found to be 4.0; in data set [1] (setting [14]), 6.0; in data set [1] (setting [15]), 7.0; in data set [1] (setting [16]) it was 9.0. Besides, the CYPIR is 4.0 in the data set with Cyperus iria (setting [13]), 6.0 in the data set with Cyperus iria (setting [14]), 7.0 with Cyperus iria (setting [15]) and 9.0 with Cyperus iria (setting [16]). Moreover, the CYPSE in data set [2] (setting [13]) is 0.0; in data set [2] (setting [14]) it was 0.0; in data set [2] (setting [16]), 4.0. The MOOVA in data set [3] (setting [13]) is listed as 7.0; in data set [3] (setting [14]), 9.0; in data set [3] (setting [15]), 9.0; in data set [3] (setting [16]), 9.0. In addition, the SAGPY in the data set on Sagittaria pygmaea, L. (setting [13]) was 4.0; with Sagittaria pygmaea, L. (setting [14]), 4.0; with Sagittaria pygmaea, L. (setting [15]) it was 5.0; with Sagittaria pygmaea, L. (setting [16]), 9.0. Further, the ORYSAT was determined as 4.0 in data set [4] (0.0320 kg/ha), 4.0 in data set [4] (0.0620 kg/ha), 5.0 in data set [4] (0.1250 kg/ha) and 7.0 in data set [4] (0.2500 kg/ha).
